“Also recorded” adds a separate entry of the source.
Tests used:
C2C12 myoblasts = assay: DMOG treatment of C2C12 myoblasts, mtDNA content and ETC gene expression; type: cell-based, mouse; conditions: 16 h
Procedure: To test if the normal hypoxic response reproduces the effect of a SIRT1 deletion by causing genome asynchrony, C2C12 myoblasts were grown under hypoxic conditions (1% oxygen) or treated with dimethyloxaloylglycine (DMOG), a HIFα prolyl hydroxylase inhibitor that stabilizes HIF.
C2C12 cell line (ATCC) was cultured in low glucose Dulbecco's modified eagle medium (DMEM) (Invitrogen) supplemented with 10% FBS (Invitrogen) and a mix of antibiotic and antimycotic (Invitrogen). To inhibit SIRT1, cells were treated the vehicle (0.001% DMSO) or 10 μM EX-527 (Tocris) for 12 h. C2C12 myoblasts were infected with an empty or SIRT1 adenovirus as described before (Gerhart-Hines et al., 2007) and the media was replaced with fresh DMEM for additional 48 h, after that the cells were treated as described before. To test the effects of hypoxia and HIFα stabilization in genome asyncrony, C2C12 myoblasts were exposed to 1% oxygen for 16 h or treated with the vehicle (0.001% DMSO) or DMOG (Cayman) for the same period of time.
(§1) RNA from skeletal muscle tissue and C2C12 cells were extracted with RNeasy mini kit (Qiagen) according to the instructions and quantified using the NanoDrop 1000 spectrophotometer (Thermo Scientific). cDNA was synthesized with the iSCRIP cDNA synthesis kit (BioRad) using 600 ng of RNA. Quantitative RT-PCR reactions were performed using 1 μM of primers and LightCycler® 480 SYBR Green Master (Roche) on an LightCycler® 480 detection system (Roche). Calculations were performed by a comparative method (2-ΔCT) using 18S as an internal control. For mtDNA analysis, total DNA was extracted with DNeasy blood and tissue kit (Qiagen). mtDNA was amplified using primers specific for the mitochondrial cytochrome c oxidase subunit 2 (COX2) gene and normalized to genomic DNA by amplification of the ribosomal protein s18 (rps18) nuclear gene. Primers were designed using the IDT software (IDT) and the primer sequences can be found in Table 1.

[1] = tested on: 6- and 22-month-old C57BL/6J mice; assay: NMN treatment of 6- and 22-month-old mice, skeletal muscle readouts; type: in vivo, mouse; conditions: NMN for one week
Description: C57BL/6J mice of 6, 22, or 30 months of age were obtained from the National Institutes of Aging mouse aging colony. Additionally 22 months old caloric restricted mice were also obtained from the National Institutes of Aging mouse aging colony. EGLN1 KO, SIRT1 KO and SIRT1 OE mice were generated as previously described (Minamishima et al., 2008; Price et al., 2012). Mice were acclimated for at least one-week prior to sacrifice. 3, 6, 22 and 24-month-old mice were given interperitoneal (IP) injections of 500 mg NMN/kg body weight per day or the equivalent volume of PBS for 7 consecutive days at 5:00 pm and 7:00 am on day 8 and sacrificed 4 hr after last injection.
Cytochrome c oxidase activity was polarographically determined based on the 02 consumption upon cytochrome c oxidation, as previously described (Brautigan et al., 1978). The reaction was carried out at 25° C. in 1.3 mL of standard respiratory medium (as in mitochondrial respiration) supplemented with 2 μM rotenone, 10 μM oxidized cytochrome c, 0.3 mg TritonX-100. Following addition of the sample, the reaction was initiated by adding 5 mM ascorbate plus 0.25 mM tetramethylphenylene-diamine (TMPD).
ATP content was measured with a commercial kit according to the manufacturer's instructions (Roche).
as §1
Protein extracts from tissue or C2C12 cells were obtained by lysis in ice-cold lysis buffer (150 mM NaCl, 10 mM Tris HCl (pH 7.4), 1 mM EDTA, 1 mM EGTA, 1% Triton X-100, 0.5% NP-40) supplemented with a cocktail of protease and phosphatase inhibitors (Roche). Protein content was determined by the Bradford protein assay (Biorad), and 50 μg proteins were run on SDS-PAGE under reducing conditions. The separated proteins were then electrophoretically transferred to a polyvinylidene difluoride membrane (Perkin-Elmer). […] The immunostaining was detected using horseradish peroxidase-conjugated anti-rabbit or anti-mouse immunoglobulin for 1 h at room temperature.
NAD^+ from skeletal muscle was quantified with a commercially available kit (BioVision) according to the manufacturer's instructions and as described before (Gomes et al., 2012).
It was shown above that decreased levels of NAD^+ associated with age invokes a SIRT1 dependent pseudohypoxic response that disrupts mitochondrial homeostasis. Therefore, artificially boosting NAD^+ levels in old mice should restore mitochondrial homeostasis by reducing HIF-1α levels and restoring the expression of mitochondrial-encoded ETC components. Administration of NMN, a compound recently shown to increase NAD^+ levels in a variety of tissues (Yoshino et al., 2011), to 6- and 22-month-old C57BL/6J mice for one week increased levels of cellular NAD^+ in both the young and old mice were by 2-fold. The boost in the treated 22-month-old mice resembled the untreated 6-month-olds (FIG. 17A).

SMILES | expression of mitochondrially-encoded ETC genes (C2C12 myoblasts) | expression of nuclear-encoded ETC components (C2C12 myoblasts) | mtDNA content (C2C12 myoblasts) | expression of mitochondrial-encoded genes ([1]; gastrocnemius, qPCR, old mice) | ATP levels ([1]; gastrocnemius, old mice) | COX activity ([1]; gastrocnemius, old mice) | HIF-1α protein (immunoblot) ([1]; gastrocnemius, old mice) | VHL protein (immunoblot) ([1]; gastrocnemius, old mice) | lactate levels in the skeletal muscle ([1]; old mice) | muscle wasting markers Atrogin-1 and MuRF1 ([1]; skeletal muscle of old mice, immunoblot) | expression of inflammation markers ([1]; skeletal muscle of old mice, qPCR) | phosphorylation of AKT and IRS-1 ([1]; soleus of old mice, immunoblot) | age-induced insulin resistance in the skeletal muscle ([1]; soleus of old mice) | levels of cellular NAD+ ([1]; young and old mice) [fold]
COC(=O)CNC(=O)C(=O)OC [DMOG, dimethyloxaloylglycine] | specific decline | but not the nuclear-encoded components | specific decline |  |  |  |  |  |  |  |  |  |  | 
NC(=O)c1ccc[n+]([C@@H]2O[C@H](COP(=O)([O-])O)[C@@H](O)[C@H]2O)c1 [NMN, nicotinamide mononucleotide] |  |  |  | restored | increase | increase | reversed; also recorded: reduced the level of HIF-1α | reversed the age-induced decline | suppressed the increase | completely reversed | completely reversed | increasing the phosphorylation | reverse age-induced insulin resistance | 2

Source: patent publication US20200291100A1, “TREATMENT OF AGE-RELATED AND MITOCHONDRIAL DISEASES BY INHIBITION OF HIF-1 ALPHA FUNCTION” (President and Fellows of Harvard College, priority 2012, published 2020)
